Laboratory results: patent publication US20220040129A1, “TREATMENT OF HYPERAMMONEMIA IN PATIENTS WITH RENAL INSUFFICIENCY” (RECORDATI S.p.A., priority 2019, published 2022)
Where two headings read alike, the source gives them in different places.

Columns and labels:
[1] = Adverse reactions in retrospective studies of patients with NAGS deficiency, PA, MMA or IVA; format: in vivo, human; conditions: Total Population = 80
Text: Sixty-one percent (61%) of patients were male and 39% of patients were female. In patients with PA, MMA or IVA (48% male and 52% female patients), 57% of decompensation episodes occurred during the first 4 weeks after birth (neonates), and 43% of decompensation episodes occurred beyond the neonatal period. The median age at the start of the decompensation episode was 12 days.

[2] = system: plasma ammonia; experiment: Retrospective review of NAGS deficiency patients: plasma ammonia levels; format: in vivo, human; conditions: for Plasma ammonia, Mean (SD) / Plasma ammonia, Median / Plasma ammonia, Range: NAGS deficiency patients
Protocol: Treatment with carglumic acid was divided in two regimens. For acute treatment, patients received a total daily dose of 100 mg/kg/day to 250 mg/kg/per day primarily administered in 2 to 4 divided doses for the first few days of treatment. For maintenance treatment, the dosage was reduced over time based on plasma ammonia level and clinical responses.
Short-term efficacy was evaluated using mean and median change in plasma ammonia levels from baseline to days 1 to 3. Persistence of efficacy was evaluated using long-term mean and median change in plasma ammonia level.
All 13 patients had abnormal plasma ammonia levels at baseline. […] Long-term efficacy was measured using the last reported plasma ammonia level for each of the 13 patients analyzed (median length of treatment was 6 years; range 1 to 16 years). The mean and median plasma ammonia levels were 23 micromol/L and 24 micromol/L, respectively, after a mean treatment duration of 8 years (Table 5).

[3] = biological target: CYP2C9 (Homo sapiens, UniProt P11712); experiment: In vitro CYP inhibition; format: in vitro ADME
[4] = biological target: CYP2D6 (Homo sapiens, UniProt P10635); experiment: In vitro CYP inhibition; format: in vitro ADME
[5] = system: plasma NH3; conditions: cited from earlier work
[6] = Long-term (mean 8 years), last available value on treatment
[7] = in most cases, carglumic acid alone, 13 episodes
[8] = second block headed All (N = 5), First 24 hrs
[9] = second block headed All (N = 5), First 48 hrs

Chain of CYP2D6 (P10635 whole entry): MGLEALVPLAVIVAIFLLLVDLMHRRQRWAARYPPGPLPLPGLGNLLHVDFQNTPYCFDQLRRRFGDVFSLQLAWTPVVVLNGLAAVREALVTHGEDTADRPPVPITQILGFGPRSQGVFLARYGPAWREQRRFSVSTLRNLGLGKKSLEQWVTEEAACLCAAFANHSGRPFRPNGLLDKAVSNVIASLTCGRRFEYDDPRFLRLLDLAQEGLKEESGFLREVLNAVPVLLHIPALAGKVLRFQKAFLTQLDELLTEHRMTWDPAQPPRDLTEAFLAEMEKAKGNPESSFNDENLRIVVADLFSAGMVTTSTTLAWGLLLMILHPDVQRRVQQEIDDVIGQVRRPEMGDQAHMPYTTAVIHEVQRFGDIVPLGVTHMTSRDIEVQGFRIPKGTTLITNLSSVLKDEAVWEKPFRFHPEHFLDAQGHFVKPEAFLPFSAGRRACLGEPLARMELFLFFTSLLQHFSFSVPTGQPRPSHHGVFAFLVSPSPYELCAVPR
Chain of CYP2C9 (P11712 whole entry): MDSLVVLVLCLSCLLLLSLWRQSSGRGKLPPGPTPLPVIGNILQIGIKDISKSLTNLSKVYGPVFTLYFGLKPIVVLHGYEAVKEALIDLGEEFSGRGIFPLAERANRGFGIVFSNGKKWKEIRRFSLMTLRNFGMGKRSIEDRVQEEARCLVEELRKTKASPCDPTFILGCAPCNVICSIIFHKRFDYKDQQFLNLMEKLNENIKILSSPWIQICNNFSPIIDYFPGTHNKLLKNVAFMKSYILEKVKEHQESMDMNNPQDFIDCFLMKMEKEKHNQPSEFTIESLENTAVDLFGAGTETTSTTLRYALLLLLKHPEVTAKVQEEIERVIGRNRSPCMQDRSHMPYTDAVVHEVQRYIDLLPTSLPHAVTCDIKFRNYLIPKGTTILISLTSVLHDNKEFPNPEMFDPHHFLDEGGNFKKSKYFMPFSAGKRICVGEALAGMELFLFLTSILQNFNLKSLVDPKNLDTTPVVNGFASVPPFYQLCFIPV

SMILES: NC(=O)N[C@@H](CCC(=O)O)C(=O)O [carglumic acid, N-carbamoyl-L-glutamic acid]
- Adverse reaction Abdominal pain, Number of Patients (N) (%) [1]: 4 (5%) N (%)
- Adverse reaction Anemia, Number of Patients (N) (%) [1]: 4 (5%) N (%)
- Adverse reaction Anorexia, Number of Patients (N) (%) [1]: 2 (3%) N (%)
- Adverse reaction Diarrhea, Number of Patients (N) (%) [1]: 5 (5%) N (%)
- Adverse reaction Dysgeusia, Number of Patients (N) (%) [1]: 2 (3%) N (%)
- Adverse reaction Ear infection, Number of Patients (N) (%) [1]: 3 (4%) N (%)
- Adverse reaction Headache, Number of Patients (N) (%) [1]: 3 (4%) N (%)
- Adverse reaction Hemoglobin decreased, Number of Patients (N) (%) [1]: 2 (3%) N (%)
- Adverse reaction Hyperhidrosis, Number of Patients (N) (%) [1]: 2 (3%) N (%)
- Adverse reaction Infection, Number of Patients (N) (%) [1]: 3 (4%) N (%)
- Adverse reaction Influenza, Number of Patients (N) (%) [1]: 2 (3%) N (%)
- Adverse reaction Jaundice, Number of Patients (N) (%) [1]: 2 (3%) N (%)
- Adverse reaction Nasopharyngitis, Number of Patients (N) (%) [1]: 3 (4%) N (%)
- Adverse reaction Nervous system disorder, Number of Patients (N) (%) [1]: 2 (3%) N (%)
- Adverse reaction Pneumonia, Number of Patients (N) (%) [1]: 2 (3%) N (%)
- Adverse reaction Pyrexia, Number of Patients (N) (%) [1]: 7 (9%) N (%)
- Adverse reaction Rash, Number of Patients (N) (%) [1]: 2 (3%) N (%)
- Adverse reaction Somnolence, Number of Patients (N) (%) [1]: 2 (3%) N (%)
- Adverse reaction Tonsillitis, Number of Patients (N) (%) [1]: 4 (5%) N (%)
- Adverse reaction Transaminase increased, Number of Patients (N) (%) [1]: 2 (3%) N (%)
- Adverse reaction Vomiting, Number of Patients (N) (%) [1]: 6 (8%) N (%)
- Adverse reaction Weight decreased, Number of Patients (N) (%) [1]: 2 (3%) N (%)
- Differences in clinical response between adults and pediatric NAGS deficiency patients ([2]; 23 NAGS deficiency patients): no apparent differences
- Plasma ammonia, Mean (SD) ([2]; Day 1 of treatment): 181 (358) micromole/L
- Plasma ammonia, Median ([2]; Day 1 of treatment): 65 µmol/L
- Plasma ammonia, Range ([2]; Day 1 of treatment): 25 to 1190 µmol/L
- Plasma ammonia, Mean (SD) ([2]; Day 2 of treatment): 69 (78) micromole/L
- Plasma ammonia, Median ([2]; Day 2 of treatment): 44 µmol/L
- Plasma ammonia, Range ([2]; Day 2 of treatment): 11 to 255 µmol/L
- Plasma ammonia, Mean (SD) ([2]; Day 3 of treatment): 27 (11) micromole/L
- Plasma ammonia, Median ([2]; Day 3 of treatment): 25 µmol/L
- Plasma ammonia, Range ([2]; Day 3 of treatment): 12 to 42 µmol/L
- Plasma ammonia, Mean (SD) [2, 6]: 23 µmol/L
- Plasma ammonia, Median [2, 6]: 24 µmol/L
- Plasma ammonia, Range [2, 6]: 9 to 34 µmol/L
- Plasma ammonia, Mean (SD) ([2]; Long-term (mean 8 years), last available value on treatment, listed as Carglumic Acid): 23 (7) micromole/L
- Plasma ammonia levels by day 3 ([2]; patients for whom data were available, normal range 5 to 50 micromol/L): normal plasma ammonia levels were attained
- Inhibition of CYP2C9 [3]: not an inhibitor
- Inhibition of CYP2D6 [4]: not an inhibitor
- Plasma NH3 level, Mean (SD) ([5]; All episodes, First 24 hrs): 94.6 (47.6) micromol/L
- Plasma NH3 level, Median ([5]; All episodes, First 24 hrs): 100.0 µmol/L
- Plasma NH3 level, Min-Max ([5]; All episodes, First 24 hrs): 43.3 to 187.9 µmol/L
- Plasma NH3 level, Q1-Q3 ([5]; All episodes, First 24 hrs): 50.0 to 110.5 µmol/L
- Plasma NH3 level, Mean (SD) ([5]; All episodes, First 48 hrs): 80.5 (43.4) micromol/L
- Plasma NH3 level, Median ([5]; All episodes, First 48 hrs): 66.0 µmol/L
- Plasma NH3 level, Min-Max ([5]; All episodes, First 48 hrs): 32.0 to 187.9 µmol/L
- Plasma NH3 level, Q1-Q3 ([5]; All episodes, First 48 hrs): 50.0 to 100.0 µmol/L
- Plasma NH3 level, Mean (SD) ([5]; Non-Neonates, First 24 hrs): 106.1 (56.6) micromol/L
- Plasma NH3 level, Median ([5]; Non-Neonates, First 24 hrs): 100.0 µmol/L
- Plasma NH3 level, Min-Max ([5]; Non-Neonates, First 24 hrs): 47.6 to 187.9 µmol/L
- Plasma NH3 level, Q1-Q3 ([5]; Non-Neonates, First 24 hrs): 50.0 to 170.0 µmol/L
- Plasma NH3 level, Mean (SD) ([5]; Non-Neonates, First 48 hrs): 81.8 (52.2) micromol/L
- Plasma NH3 level, Median ([5]; Non-Neonates, First 48 hrs): 58.0 µmol/L
- Plasma NH3 level, Min-Max ([5]; Non-Neonates, First 48 hrs): 32.0 to 187.9 µmol/L
- Plasma NH3 level, Q1-Q3 ([5]; Non-Neonates, First 48 hrs): 48.8 to 110.5 µmol/L
- Time within which a marked reduction in plasma NH3 levels was observed [5, 7]: ≤ 6 h
- Time within which plasma NH3 values were normalized [5, 7]: ≤ 30 h
- Plasma NH3 level, Mean (SD) [5, 8]: 78.5 (29.6) micromol/L
- Plasma NH3 level, Median [5, 8]: 100.0 µmol/L
- Plasma NH3 level, Min-Max [5, 8]: 42.3 to 100.0 µmol/L
- Plasma NH3 level, Q1-Q3 [5, 8]: 50.0 to 100.0 µmol/L
- Plasma NH3 level, Mean (SD) [5, 9]: 78.5 (29.6) micromol/L
- Plasma NH3 level, Median [5, 9]: 100.0 µmol/L
- Plasma NH3 level, Min-Max [5, 9]: 42.3 to 100.0 µmol/L
- Plasma NH3 level, Q1-Q3 [5, 9]: 50.0 to 100.0 µmol/L
